From US20100298384A1, “NOVEL OXAZOLIDINONE COMPOUNDS AS ANTIINFECTIVE AGENTS” (priority 2006, published 2010)
Each block holds one molecule with its values, some of them ahead of it.

Experiments:
[1] = test system: S. aureus ATCC 29213 and other strains; assay: Systemic infection model in mice, ED50 by Probit analysis; format: in vivo; conditions: Staphylococcus aureus, ATCC29213, Swiss albino mice, survival observed 5 to 7 days, route and regimen not stated per value
Description: Efficacies of the molecules were determined by systemic infection model. In this model, 6-7 weeks old Swiss albino mice (3 Males and 3 Females/group) weighing 21-25 grams were used. S. aureus ATCC 29213 and other strains were cultured on Columbia Blood agar (DIFCO), overnight, at 37° C. for 18 to 24 hours. Inoculum was prepared in 0.9% saline and optical density (OD) was adjusted at 560 nm to get 100×LD50 dose. Inoculum was diluted 1:1 with 10% Hog Gastric Mucin and 0.5 ml of inoculum was injected intraperitonially to each animal. Test compounds were solubilised in suitable formulation and administered by per-oral, subcutaneous or intra venous route by q.d., b.i.d. or t.i.d. protocol. […] ED50 Value (mg/kg) was calculated by Probit analysis.

melting point: 160 to 162 °C
Structure (SMILES): CC(=O)NC[C@H]1CN(c2ccc(-c3nc(Cn4cncn4)co3)c(F)c2)C(=O)O1 [Example 4, N-{3-[3-fluoro-4-(4-[1,2,4]-triazol-1-ylmethyl-oxazol-2-yl)-phenyl]-2-oxo-oxazolidin-5(S)-ylmethyl}-acetamide]
ED50 [1]: 5.38 mg/kg

melting point: 170 to 171 °C
Structure (SMILES): CC(=O)NC[C@H]1CN(c2ccc(-n3cc(Cn4cncn4)nn3)c(F)c2)C(=O)O1 [Example 30]
ED50 [1]: 8.5 mg/kg

The next lines start with the molecule.

Structure (SMILES): COC(=O)NC[C@H]1CN(c2ccc(-n3cnc(Cn4cccn4)c3)c(F)c2)C(=O)O1 [Example 44, Methyl {3-[3-fluoro-4-(4-pyrazol-1-ylmethyl-imidazol-1-yl)-phenyl]-2-oxo-oxazolidin-5-ylmethyl}-carbamate]
melting point: 130 °C
ED50 [1]: 5.02 mg/kg

Structure (SMILES): COC(=O)NC[C@H]1CN(c2ccc(-n3cc(Cn4cccn4)nn3)c(F)c2)C(=O)O1 [Example 46, Methyl N-{3-[3-fluoro-4-(4-pyrazol-1-yl-methyl-(1,2,3)triazol-1-yl)-phenyl]-2-oxo-oxazolidin-5-ylmethyl}carbamate]
ED50 [1]: 2.53 mg/kg

Structure (SMILES): CC(=O)NC[C@H]1CN(c2ccc(-c3nc(Cn4cccn4)co3)c(F)c2)C(=O)O1 [Example 2, N-{3-[3-fluoro-4-(4-pyrazol-1-ylmethyl-oxazol-2-yl)-phenyl]-2-oxo-oxazolidin-5(S)-ylmethyl}-acetamide]
melting point: 204 to 206 °C
ED50 [1]: 7.1 mg/kg
